Source: patent publication US20240058265A1, “TREATMENT OF OCULAR DISEASES USING ENDOTHELIN RECEPTOR ANTAGONISTS” (Perfuse Therapeutics, Inc., priority 2021, published 2024)
Several values for one entry are separate records, joined by “and”; a condition that tells them apart may be missing. Equal entries are not always repeated. Where two headings read alike, the source gives them in different places.

How the values were obtained:
[1] = Pharmacokinetics after topical administration in the rabbit; type: in vivo, Dutch-belted rabbits; conditions: single topical eye drop 100 μg, 10 minutes, 2 and 7 hours
Method: To determine the pharmacokinetic properties of Edonentan following topical administration in the rabbit, rabbits (Dutch-belted rabbits) received an eye drop in both eyes (100 μg of Edonentan, 35 μL dose volume/eye). After the administrations, the animals (N=2) were euthanized at different time points (e.g. 10 minutes (immediately after pot-dose), 2 and 7 hours) and tissues were collected for analysis. List of tissues collected include plasma, retina, vitreous humor and bulbar conjunctiva.

Stability in solid state = type: physicochemical; conditions: 2 h@125° C.
Text: (§1) In the above table, the physicochemical data, e.g., solubility, were obtained following standard protocols known in the field (see, e.g., Reis et al., Mini Rev Med Chem., 2010, 10(11):1071-6; Avdeef et al., Expert Opin Drug Metab Toxicol., 2005, 1(2):325-42; Bharate et al., Comb Chem High Throughput Screen., 2016, 19(6):461-9; and Jain et al., J Pharm Biomed Anal., 2013, 86:11-35.); and the biochemical data, i.e., potency for ETA/ETB, were obtained following the protocols known in the field (see, e.g., Kirkby et al., Br J Pharmacol., 2008, 153(6):1105-19; and Maguire et al., Br J Pharmacol., 2014, 171(24):5555-72.).

[2] = Solubility (pH 2, pH 7, ethyl acetate); type: physicochemical
Text: as §1

ET-1 induced vasospasm = assay: Rabbit ET-1 induced vasospasm model, retinal blood flow (OCT-A, FA); type: in vivo, rabbit (Oryctolagus cuniculus)
Method: Adult, male Dutch-belted rabbits were given a 20 μl intravitreal injection (IVT) of 0.5 μg of ET-1 followed by a 20 μl intravitreal injection of 10-100 μg Edonentan given 30 min after the ET-1 administration. IOP, optical coherence tomography—angiography (OCT-A), and fluorescein angiograms (FA) were performed at pre-specified time points (30, 45, 60, and 75 min) following ET-1 and Edonentan administration to assess retinal blood flow changes induced by ET-1+/−Edonentan. […] To evaluate the effect of retinal blood flow following intravitreally administered endothelin-1 (ET-1) followed by the antagonist Edonentan in the rabbit, rabbits (Oryctolagus cuniculus) were given a 20 μL intravitreal injection of ET-1 in the left eye followed by a 20 μL intravitreal injection of Edonentan at 2 (or 3) different doses (e.g. 0.1 μg, 0.5 μg, 2.5 μg). The pulse ox, tonometry, optical coherence tomography angiography (OCTA), fluorescein angiography (FA) and retinal leakage scoring were performed for evaluation.

[3] = system: laser-induced glaucoma eye; assay: Laser-induced glaucoma non-human primate, optic nerve head blood flow (LSFG) after IVT administration; type: in vivo, rhesus macaque, Macaca Mulatta; conditions: IVT 50 μL of 0.02, 0.2 or 2.0 mg/mL, over 6 hours, glaucomatous eye
Method: Non-human primates (rhesus macaque, Macaca Mulatta) were obtained for this study. One eye of each animal underwent induction of elevation of intraocular pressure (TOP) by repeated laser photocoagulation of the trabecular meshwork. Imaging sessions were repeated to monitor the optic nerve head (ONH) and retinal structural changes. A study was performed to compare an experimental glaucoma eye and a contralateral healthy eye (control) of three non-human primates in global average mean blur rate (MBR) and MBR change from baseline over time as an index of ONH blood flow in a laser-induced glaucoma model. More specifically, a vehicle control, 0.02 mg/mL of Edonentan, 0.2 mg/mL of Edonentan, or 2.0 mg/mL of Edonentan was intravitreally administered (50 μL) to a glaucomatous eye of each of three non-human primates (rhesus macaque, Macaca Mulatta). These graphs show the ONH blood flow in the three non-human primates after IVT administration of a vehicle alone (FIG. 7A, FIG. 7E, and FIG. 7I), 0.02 mg/mL of Edonentan (FIG. 7B, FIG. 7F, and FIG. 7J), 0.2 mg/mL of Edonentan (FIG. 7C, FIG. 7G, and FIG. 7K) or 2.0 mg/mL of Edonentan (FIG. 7D, FIG. 7H, and FIG. 7L).

[4] = Pharmacokinetics after topical or oral administration in the rat; type: in vivo, Brown Norway rats
Method: After the administrations, the animals (N=2) were euthanized at different time points (e.g. 4 and 8 hours) and tissues were collected for analysis. List of tissues collected include plasma, retina/retinal pigment epithelium (RPE)/choroid, vitreous humor and aqueous humor.

Stability in Solid State (verdict) (Stability in solid state): Stable
Solubility in Ethyl Acetate (rating) ([2]; ethyl acetate): Good
solubility ([2]; ethyl acetate, organic solvent or mixture, read-out: Solubility in Ethyl Acetate): > 8900 µg/mL and > 16800 µM
solubility ([2]; pH 2, simulated gastric fluid, read-out: Solubility at pH 2): < 0.54 µg/mL and < 1 µM
Solubility at pH 7 ([2]; pH 7, amorphous form): 607 μM
Detection in aqueous humor after oral administration ([4]; oral, 17 mg/kg): detectable
Detection in retina/RPE/choroid and vitreous humor after oral administration ([4]; oral, 1.7 and 17 mg/kg): detectable
Detection in retina/RPE/choroid, aqueous humor and vitreous humor ([4]; topical eye drop 100 μg, 4 and 8 hours): detected
Compound: Cc1onc(NS(=O)(=O)c2ccccc2-c2ccc(-c3ncco3)cc2CN(C)C(=O)CC(C)(C)C)c1C [Edonentan, N-[[2′-[[(4,5-dimethyl-3-isoxazolyl)amino]sulfonyl]-4-(2-oxazolyl)[1,1′-biphenyl]-2-yl]methyl]-N,3,3-trimethylbutanamide]
Detection in plasma, retina, vitreous humor and bulbar conjunctiva [1]: detected in all tissues examined at all timepoints
Fluorescein dye velocity as an index of retinal blood flow, dose dependence (ET-1 induced vasospasm; 0.1 μg ET-1 and 0.1, 0.5, 2.5 or 10 μg Edonentan IVT (FIG. 8A, 8B)): dose-response
Effect of ET-1 (retinal vasoconstriction), fluorescein angiography (ET-1 induced vasospasm; 0.5 μg ET-1 IVT, then 10 μg Edonentan IVT, within 90 min (60 min after Edonentan)): reversed
Fluorescein dye velocity as an index of retinal blood flow (ET-1 induced vasospasm; healthy rabbits, 0.5 μg ET-1 and 10 μg antagonist IVT (FIG. 3)): improved to control levels
ONH blood flow (mean blur rate, LSFG) [3]: improvement of ONH blood flow in a dose-dependent manner
